Results taken from article PMC8752738, “A propolis-derived small molecule ameliorates metabolic syndrome in obese mice by targeting the CREB/CRTC2 transcriptional complex” (Nature Communications, 2022).
Values joined by “and” are separate entries in the source; they are usually repeats but may differ in a detail not shown here. Equal values may be shown once.

Tested on: tissue mRNA levels
Test: Quantitative PCR of tissue gene expression in treated mice
Format: in vivo, mouse
Set-up: key to mRNA levels Scap / mRNA levels Insig1 / mRNA levels Ldlr / mRNA levels Mttp / mRNA levels Atgl / mRNA levels Tnfaip2 / mRNA levels Rxra / mRNA levels Srebf1 / mRNA levels Ucp2: mRNA level normalized to ribosomal L32 mRNA (internal control)
Settings: for Lxra mRNA level: Figure 7g right, APC-20, single animals
Protocol: Total RNA from cells and tissues was extracted by Trizol (Invitrogen) and reverse-transcribed into cDNA using the prime script RT reagent kit with gDNA eraser (Takara). The mRNA levels were determined using the SYBR-green PCR kit (Takara) with ABIPRISM 7900HT Sequence detector (ABI) according to the manufacturer’s protocol. The quantitative qPCR primers used in this work are listed in Supplementary Table 1. Ribosomal L32 mRNA levels were used as an internal control.

[1] = Figure 6f, CRTC2KO mice, oral APC, individual mice
[2] = Figure 6f, WT mice, oral APC, group mean, N 6
[3] = Figure 6f, WT mice, oral APC, individual mice
[4] = Figure 8b, group mean, VEH mean 1.017
[5] = Figure 8b, individual mice, relative to CT
[6] = Figure 6d, white fat (WF) tissue of DIO mice, individual animals

## CC(C)=CCc1cc(C=CC(=O)O)cc(CC=C(C)C)c1O [APC, 3,5-diprenyl-4-hydroxycinnamic acid]
[1]
  mRNA of Srebf-1c: 0.7027 and 0.8687 and 0.636 and 0.7129 and 0.563 and 0.649
  mRNA of Srebf-2: 0.9632 and 0.7439 and 0.6331 and 0.8903 and 0.6443 and 0.8216
Figure 6f, WT mice, oral APC
  mRNA of Srebf-1c, Mean Diff. APC - VEH: -0.3789
  mRNA of Srebf-2, Mean Diff. APC - VEH: -0.3018
[2]
  mRNA of Srebf-1c, Mean 1 (APC): 0.629
  mRNA of Srebf-2, Mean 1 (APC): 0.7556
[3]
  mRNA of Srebf-1c: 0.563 and 0.9627 and 0.5968 and 0.3599 and 0.5266 and 0.7651
  mRNA of Srebf-2: 0.6655 and 0.7786 and 0.6178 and 0.7571 and 0.8561 and 0.8585
Crtc2KO mice
  Lxra mRNA level: 1.153 and 0.7926 and 0.8176 and 0.4111 and 0.7938
WT mice
  Lxra mRNA level: 0.6135 and 0.274 and 0.3613 and 0.5157 and 0.4764
Figure 8b, group mean, VEH mean 1.004
  mRNA levels G6Pase, Mean of APC: 0.5682
[4]
  mRNA levels Pck1, Mean of APC: 0.584
  mRNA levels Pgc-1a, Mean of APC: 0.499
[5]
  mRNA levels G6Pase: 0.4956 and 0.4542 and 0.8275 and 0.9159 and 0.3526 and 0.3635
  mRNA levels Pck1: 0.4515 and 0.4432 and 0.8122 and 0.7784 and 0.5234 and 0.4955
  mRNA levels Pgc-1a: 0.6618 and 0.6014 and 0.6454 and 0.5396 and 0.2614 and 0.2843
Figure 6d, white fat (WF) tissue of DIO mice, group mean, Mean of VEH 0.9173
  mRNA levels ApoB, Mean of APC: 0.3598
Figure 6d, white fat (WF) tissue of DIO mice, group mean, Mean of VEH 0.9567
  mRNA levels Srebf-1c, Mean of APC: 0.3721
Figure 6d, white fat (WF) tissue of DIO mice, group mean, Mean of VEH 0.9649
  mRNA levels Acsl1, Mean of APC: 0.4379
Figure 6d, white fat (WF) tissue of DIO mice, group mean, Mean of VEH 0.976
  mRNA levels Lxra, Mean of APC: 0.6757
Figure 6d, white fat (WF) tissue of DIO mice, group mean, Mean of VEH 0.9829
  mRNA levels Cebpa, Mean of APC: 1.129
Figure 6d, white fat (WF) tissue of DIO mice, group mean, Mean of VEH 0.9868
  mRNA levels Creb, Mean of APC: 1.007
Figure 6d, white fat (WF) tissue of DIO mice, group mean, Mean of VEH 0.9898
  mRNA levels Cpt1, Mean of APC: 1.536
Figure 6d, white fat (WF) tissue of DIO mice, group mean, Mean of VEH 0.9976
  mRNA levels Pparγ, Mean of APC: 0.9616
Figure 6d, white fat (WF) tissue of DIO mice, group mean, Mean of VEH 1.005
  mRNA levels Tnfaip2, Mean of APC: 0.9923
Figure 6d, white fat (WF) tissue of DIO mice, group mean, Mean of VEH 1.009
  mRNA levels Pgc-1a, Mean of APC: 0.704
Figure 6d, white fat (WF) tissue of DIO mice, group mean, Mean of VEH 1.017
  mRNA levels Srebf-2, Mean of APC: 0.6488
Figure 6d, white fat (WF) tissue of DIO mice, group mean, Mean of VEH 1.018
  mRNA levels Acc, Mean of APC: 0.5342
Figure 6d, white fat (WF) tissue of DIO mice, group mean, Mean of VEH 1.022
  mRNA levels Scd1, Mean of APC: 0.5423
Figure 6d, white fat (WF) tissue of DIO mice, group mean, Mean of VEH 1.036
  mRNA levels Fasn, Mean of APC: 0.5535
Figure 6d, white fat (WF) tissue of DIO mice, group mean, Mean of VEH 1.041
  mRNA levels Mgll, Mean of APC: 0.6295
Figure 6d, white fat (WF) tissue of DIO mice, group mean, Mean of VEH 1.044
  mRNA levels Retn, Mean of APC: 0.3139
Figure 6d, white fat (WF) tissue of DIO mice, group mean, Mean of VEH 1.054
  mRNA levels Glut4, Mean of APC: 0.2982
Figure 6d, white fat (WF) tissue of DIO mice, group mean, Mean of VEH 1.057
  mRNA levels Atgl, Mean of APC: 1.332
Figure 6d, white fat (WF) tissue of DIO mice, group mean, Mean of VEH 1.069
  mRNA levels Hsl, Mean of APC: 1.68
Figure 6d, white fat (WF) tissue of DIO mice, group mean, Mean of VEH 1.114
  mRNA levels Lpl, Mean of APC: 0.6106
Figure 6d, white fat (WF) tissue of DIO mice, group mean, Mean of VEH 1.126
  mRNA levels Pgc-1b, Mean of APC: 0.666
[6]
  mRNA levels Acc: 0.5239 and 0.3917 and 0.6963 and 0.6783 and 0.5952 and 0.3196
  mRNA levels Acsl1: 0.4459 and 0.1537 and 0.5539 and 0.2927 and 0.6116 and 0.5696
  mRNA levels ApoB: 0.3337 and 0.2599 and 0.6345 and 0.1702 and 0.408 and 0.3527
  mRNA levels Atgl: 1.322 and 1.233 and 1.718 and 1.2249 and 1.301 and 1.192
  mRNA levels Cebpa: 1.279 and 0.9809 and 1.111 and 1.353 and 1.154 and 0.8979
  mRNA levels Cpt1: 1.627 and 1.184 and 1.402 and 2.24 and 1.4196 and 1.345
  mRNA levels Creb: 1.411 and 1.393 and 1.026 and 0.3555 and 0.9743 and 0.8802
  mRNA levels Fasn: 0.5104 and 0.4062 and 0.9888 and 0.3127 and 0.6571 and 0.4456
  mRNA levels Glut4: 0.4697 and 0.1331 and 0.1991 and 0.1942 and 0.3683 and 0.4245
  mRNA levels Hsl: 2.303 and 1.694 and 1.5898 and 1.21 and 1.869 and 1.4146
  mRNA levels Lpl: 0.6557 and 0.743 and 0.6544 and 0.3781 and 0.733 and 0.4994
  mRNA levels Lxra: 0.7883 and 0.7167 and 0.4804 and 0.6732 and 0.7502 and 0.6457
  mRNA levels Mgll: 0.5524 and 0.27 and 0.8642 and 0.6156 and 0.9323 and 0.5423
  mRNA levels Pgc-1a: 0.5315 and 0.7402 and 0.6723 and 0.7798 and 0.8847 and 0.6158
  mRNA levels Pgc-1b: 0.683 and 0.7869 and 0.6257 and 0.4165 and 0.7943 and 0.6894
  mRNA levels Ppargamma: 1.1637 and 0.8189 and 1.303 and 0.8539 and 0.722 and 0.9079
